Format in all cases: functional
The subject of assay [1] is Eimeria tenella. The experiment in a line: Anticococcidal activity against Eimeria tenella in Chick assessed as reduction in lesion at 125 ug/ml relative to control. Further details: scale not given: the % may be the effect or the level left.
The species entered for assay [2] is Gallus gallus. In words: Increase in weight of Eimeria tenella infected Chick at 125 ug/ml relative to control.
Assay [3] has as its system Eimeria tenella. The experiment in a line: Anticococcidal activity against Eimeria tenella in Chick assessed as reduction in lesion at 2 ug/ml relative to control. On the set-up: scale not given: the % may be the effect or the level left.
In assay [4] the test system is Eimeria tenella. The experiment in a line: Anticococcidal activity against Eimeria tenella in Chick assessed as reduction in lesion at 4 ug/ml relative to control. On the set-up: scale not given: the % may be the effect or the level left.
For assay [5], the system named is Eimeria tenella. The experiment in a line: Anticococcidal activity against Eimeria tenella in Chick assessed as reduction in lesion at 8 ug/ml relative to control. Further details: scale not given: the % may be the effect or the level left.
The species named for assay [6] is Gallus gallus. The experiment in a line: Increase in weight of Eimeria tenella infected Chick at 2 ug/ml relative to control.
For assay [7], the species on record is Gallus gallus. In words: Increase in weight of Eimeria tenella infected Chick at 4 ug/ml relative to control.
For assay [8], the species on record is Gallus gallus. In words: Increase in weight of Eimeria tenella infected Chick at 8 ug/ml relative to control.

Regarding `CCCc1ncc(C[n+]2ccccc2C)c(N)n1.Cl.[Cl-]` [AMPROLIUM], the results for the Activity in the assay with Eimeria tenella [1] and in the assay listed under Gallus gallus [2] were 60% and 75.19%, respectively.

`O=[N+]([O-])/C=C/c1ccco1`: the Activity in the assay with Eimeria tenella [3] came to 58.57%; in the assay on Eimeria tenella [4], 67.14%; with Eimeria tenella [5], 72.86%; in the assay listed under Gallus gallus [6] it was 80.08%; in the assay listed under Gallus gallus [7], 86.78%; in the assay filed under Gallus gallus [8], 83.86%.

Source of the values: ChEMBL document CHEMBL1144543, “QSAR study of anticoccidial activity for diverse chemical compounds: prediction and experimental assay of trans-2-(2-nitrovinyl)furan” (2007).
